Results as given in US20260258083A1, “T Cell Engager Masking Molecules” (AMGEN INC., priority 2023, published 2026).
Each block holds one substance with its values, some of them ahead of it. Where no end group is shown, it is not given here. [ ]: non-standard residue; d: D form. pGlu = O=C1CC[C@@H](C(=O)O)N1

Experiments:
[1] = 2nd mouse PK study, IV bolus (Example 3); format: in vivo; conditions: BL/6 mice, IV bolus 5 mg/kg, plasma
Protocol: Example 3: 2nd Mouse PK Study
A second PK study was conducted in BL/6 mice to evaluate the plasma pharmacokinetics of the masking peptide in 8-arm (octavalent), 40 kDa PEG form. Both CD3ε PepPOL, v1 (40 kDa) and CD3ε PepPOL, v1 (20 kDa) (see Table 6 for sequences) were administered to mice by IV bolus at 5 mg/kg dose level and the results are shown in Fig. XX. […] The terminal elimination half-lives were estimated to be between 90 min and 120 min for the 20 kDa or 40 kDa CD3ε PepPOL, v1 forms, respectively.

muCD19 TCE = muCD19 TCE + CD3ε PepPOL, v1 co-administration pilot study, cytokines and CD19+ B cell depletion (Example 6); format: in vivo, huCD3ε TCR KI mice; conditions: ≥1000× molar overage with 100 μg/kg muCD19 TCE
Protocol: Example 6: Study muCD19 TCE+CD3ε PepPOL, v1 Co-Administration in huCD3ε TCR KI Mouse Model. 100 ug/kg IV Dose Murine Anti-muCD19 TCE Investigated >2300X
An initial pilot study in huCD3ε TCR KI mice was conducted to establish the desired PD effect with CD3ε PepPol v1. Here, CD3ε PepPol, v1 was co-administered at ≥1000× molar overage (peptide:TCE) with 100 μg/kg muCD19 TCE.

[2] = Mouse pharmacokinetic study, IV (Example 2); conditions: BL/6 mice, IV, 0.82 or 8.2 mg/kg, plasma total intact peptide
Protocol: Example 2: Mouse Pharmacokinetic Study to Evaluate In Vivo PK
The 4-arm 20 kDa PepPOL conjugate was dosed by IV administration to BL/6 mice at 0.82 or 8.2 mg/kg dose levels. […] The PK profiles for each peptide were evaluated by quantifying plasma concentrations of total intact peptide material over time (see methods).

[3] = test system: FLT3×CD3 TCE (SEQ ID NO: 93); assay: Association kinetics by KinExA (Table 5); format: binding; conditions: KinExA, FLT3×CD3 TCE
Sequence of FLT3×CD3 TCE (SEQ ID NO: 93) (as listed by the source): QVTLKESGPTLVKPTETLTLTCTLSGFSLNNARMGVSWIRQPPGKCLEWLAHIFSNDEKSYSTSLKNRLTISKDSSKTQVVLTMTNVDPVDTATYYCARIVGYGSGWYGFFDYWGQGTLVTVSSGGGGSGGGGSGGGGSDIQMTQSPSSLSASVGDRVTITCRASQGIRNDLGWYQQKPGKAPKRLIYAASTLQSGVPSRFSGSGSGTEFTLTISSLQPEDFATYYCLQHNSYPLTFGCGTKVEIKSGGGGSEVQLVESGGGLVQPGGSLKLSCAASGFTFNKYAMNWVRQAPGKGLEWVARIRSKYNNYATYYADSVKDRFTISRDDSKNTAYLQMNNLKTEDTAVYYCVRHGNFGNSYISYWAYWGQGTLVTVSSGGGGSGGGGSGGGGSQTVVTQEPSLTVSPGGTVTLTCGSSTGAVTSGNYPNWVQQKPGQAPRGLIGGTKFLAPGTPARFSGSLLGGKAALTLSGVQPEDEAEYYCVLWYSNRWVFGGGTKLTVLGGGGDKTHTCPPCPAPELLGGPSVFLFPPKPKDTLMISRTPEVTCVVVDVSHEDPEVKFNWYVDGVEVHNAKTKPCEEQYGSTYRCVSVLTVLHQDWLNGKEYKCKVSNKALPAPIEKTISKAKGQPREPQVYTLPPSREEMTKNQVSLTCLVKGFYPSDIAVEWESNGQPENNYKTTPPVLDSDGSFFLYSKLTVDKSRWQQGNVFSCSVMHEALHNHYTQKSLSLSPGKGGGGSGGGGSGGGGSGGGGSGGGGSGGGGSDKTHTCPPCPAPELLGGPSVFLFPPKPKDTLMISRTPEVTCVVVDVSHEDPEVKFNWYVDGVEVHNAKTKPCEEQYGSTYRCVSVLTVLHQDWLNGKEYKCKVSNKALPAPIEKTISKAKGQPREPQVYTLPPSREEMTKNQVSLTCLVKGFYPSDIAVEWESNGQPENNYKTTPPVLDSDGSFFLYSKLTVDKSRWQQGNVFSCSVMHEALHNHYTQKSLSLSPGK
Protocol: • 1. Preparation of NHS-activated sepharose fast-flow beads: • 2. Fast flow sepharose suspension in 100% IPA, washed twice with milliQ H20, mild centrifugation to pool beads in between wash steps. • 3. Equilibrated in 0.15 M NaBO3, pH=8.5 buffer • 4. Added 80 mM PDEA to activate the resin for thiol exchange, 10 mins, r.t. • 5. Equilibrated resin with Hepes Buffered Saline-P (0.01 M HEPES pH 7.4, 0.15 M NaCl, 0.005% v/v Surfactant P2), pH 7.4 binding buffer • 6. Added 30 μg/mL of binding peptide, […] (SEQ ID NO; 297) or pGlu-[…] (SEQ ID NO: 300), reaction for 1 hr to functionalize resin. • 7. Quench with 10 mM L-Cys for 1 hour. • 8. Constant Binding Partner was FLT3×CD3 TCE (SEQ ID NO: 93), MW 105720, 3.2 mg/mL 31.21 uM was diluted to 333 pM and the pGlu-[…] peptide or pGlu-[…]-PEG (Pep-PEG v2) were titrated from 1 uM or 400 nM down to 2.3 pM concentrations relative to effective peptide molarity.
Association Kinetics by KinExA

[4] = test system: CDH3-CD3-MSLN-CD3 TCE (SEQ ID NO 255); assay: SPR assay of immobilized peptides binding with TCE
Sequence of CDH3-CD3-MSLN-CD3 TCE (SEQ ID NO 255) (as listed by the source): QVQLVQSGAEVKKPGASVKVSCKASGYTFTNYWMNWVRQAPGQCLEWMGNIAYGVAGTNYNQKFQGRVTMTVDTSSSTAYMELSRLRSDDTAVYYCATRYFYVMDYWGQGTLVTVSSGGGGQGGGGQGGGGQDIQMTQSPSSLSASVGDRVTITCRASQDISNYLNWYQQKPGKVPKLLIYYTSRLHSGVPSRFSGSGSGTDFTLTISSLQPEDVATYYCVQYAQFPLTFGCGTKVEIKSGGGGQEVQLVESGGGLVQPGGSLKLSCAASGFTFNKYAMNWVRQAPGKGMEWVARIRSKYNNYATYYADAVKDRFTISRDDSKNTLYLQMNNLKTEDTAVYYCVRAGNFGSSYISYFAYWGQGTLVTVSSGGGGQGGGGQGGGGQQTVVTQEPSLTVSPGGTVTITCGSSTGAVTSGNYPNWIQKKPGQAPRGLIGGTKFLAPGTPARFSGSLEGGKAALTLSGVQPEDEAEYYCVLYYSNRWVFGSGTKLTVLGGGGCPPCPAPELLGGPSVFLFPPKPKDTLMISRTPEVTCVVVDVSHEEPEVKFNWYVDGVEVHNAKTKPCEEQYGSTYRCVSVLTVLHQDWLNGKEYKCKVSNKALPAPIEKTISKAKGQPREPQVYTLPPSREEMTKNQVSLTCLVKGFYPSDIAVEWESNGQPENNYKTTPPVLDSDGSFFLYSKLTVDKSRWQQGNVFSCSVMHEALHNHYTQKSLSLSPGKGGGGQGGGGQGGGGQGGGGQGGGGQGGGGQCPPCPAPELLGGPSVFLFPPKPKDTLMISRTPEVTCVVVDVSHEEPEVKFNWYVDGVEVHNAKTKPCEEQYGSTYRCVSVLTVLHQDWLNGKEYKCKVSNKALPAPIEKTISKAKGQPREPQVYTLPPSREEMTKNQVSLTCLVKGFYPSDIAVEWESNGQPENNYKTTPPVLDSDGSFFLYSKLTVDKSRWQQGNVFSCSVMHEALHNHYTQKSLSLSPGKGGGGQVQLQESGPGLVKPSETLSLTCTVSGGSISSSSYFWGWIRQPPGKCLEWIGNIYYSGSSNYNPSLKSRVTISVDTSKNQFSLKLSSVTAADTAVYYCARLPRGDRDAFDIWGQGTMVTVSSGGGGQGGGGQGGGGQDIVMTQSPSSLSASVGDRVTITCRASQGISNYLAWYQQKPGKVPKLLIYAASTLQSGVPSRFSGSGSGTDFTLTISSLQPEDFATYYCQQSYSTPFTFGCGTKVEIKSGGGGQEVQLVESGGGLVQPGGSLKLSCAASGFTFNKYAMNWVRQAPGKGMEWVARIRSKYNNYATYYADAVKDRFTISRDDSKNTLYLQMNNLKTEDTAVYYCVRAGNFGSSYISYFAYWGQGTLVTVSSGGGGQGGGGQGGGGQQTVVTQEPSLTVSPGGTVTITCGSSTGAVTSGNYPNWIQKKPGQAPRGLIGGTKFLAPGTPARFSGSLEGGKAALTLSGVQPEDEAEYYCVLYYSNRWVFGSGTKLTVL
Protocol: (§1) Example 14: SPR Assay of Immobilized Peptides Binding with TCE
(§2) A cytiva CM5 chip was first functionalized with PDEA (2-(2pyridinyldithio)ethaneamine) under standard ((1-ethyl-3-(3-dimethylaminopropyl)carbodiimide)/(N-hydroxysuccinimide) EDC/NHS coupling conditions where the PDEA is dissolved to 20 mM and 1 M NaCl in 0.1 M sodium acetate pH 4.3. Binding peptides were dissolved to 50- or 100-ug/mL respectively in PBST, pH 6.5, and coupling times were optimized to yield the desired surface density.

[5] = test system: CLDN6xCD3 TCE SEQ ID NO 340; assay: SPR assay of immobilized peptides binding with TCE; conditions: immobilized peptide, Kinetic 1:1 Binding
Protocol: as §1, §2

[6] = target: FLT3xCD3 TCE SEQ ID NO 93; assay: SPR assay of immobilized peptides binding with TCE; conditions: immobilized peptide, Kinetic 1:1 Binding
Protocol: as §1, §2

[7] = target: Steap 1xCD3 TCE SEQ ID NO 373 + 374 + 375; assay: SPR assay of immobilized peptides binding with TCE; conditions: immobilized peptide, Kinetic 1:1 Binding
Sequence of Steap 1xCD3 TCE SEQ ID NO 373 + 374 + 375 (as listed by the source): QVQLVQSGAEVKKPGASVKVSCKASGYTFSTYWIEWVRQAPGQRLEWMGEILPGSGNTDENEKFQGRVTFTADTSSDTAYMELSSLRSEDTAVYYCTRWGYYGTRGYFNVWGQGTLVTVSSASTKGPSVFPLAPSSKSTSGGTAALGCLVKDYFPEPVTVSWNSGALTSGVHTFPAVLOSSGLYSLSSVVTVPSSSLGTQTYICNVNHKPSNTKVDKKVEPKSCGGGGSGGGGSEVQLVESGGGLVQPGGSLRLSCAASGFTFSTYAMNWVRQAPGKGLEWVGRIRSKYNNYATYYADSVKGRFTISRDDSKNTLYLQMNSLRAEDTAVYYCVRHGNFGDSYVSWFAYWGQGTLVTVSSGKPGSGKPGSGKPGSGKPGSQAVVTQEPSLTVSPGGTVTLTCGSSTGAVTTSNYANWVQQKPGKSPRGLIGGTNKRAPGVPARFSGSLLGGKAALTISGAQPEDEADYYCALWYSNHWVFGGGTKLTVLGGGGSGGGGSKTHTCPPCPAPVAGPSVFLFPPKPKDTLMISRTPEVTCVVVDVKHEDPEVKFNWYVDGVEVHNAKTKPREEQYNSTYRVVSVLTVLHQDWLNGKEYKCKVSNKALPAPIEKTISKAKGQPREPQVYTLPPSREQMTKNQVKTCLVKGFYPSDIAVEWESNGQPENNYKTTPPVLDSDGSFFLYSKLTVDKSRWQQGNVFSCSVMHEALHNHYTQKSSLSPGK
Sequence of Steap 1xCD3 TCE SEQ ID NO 373 + 374 + 375 (as listed by the source partner): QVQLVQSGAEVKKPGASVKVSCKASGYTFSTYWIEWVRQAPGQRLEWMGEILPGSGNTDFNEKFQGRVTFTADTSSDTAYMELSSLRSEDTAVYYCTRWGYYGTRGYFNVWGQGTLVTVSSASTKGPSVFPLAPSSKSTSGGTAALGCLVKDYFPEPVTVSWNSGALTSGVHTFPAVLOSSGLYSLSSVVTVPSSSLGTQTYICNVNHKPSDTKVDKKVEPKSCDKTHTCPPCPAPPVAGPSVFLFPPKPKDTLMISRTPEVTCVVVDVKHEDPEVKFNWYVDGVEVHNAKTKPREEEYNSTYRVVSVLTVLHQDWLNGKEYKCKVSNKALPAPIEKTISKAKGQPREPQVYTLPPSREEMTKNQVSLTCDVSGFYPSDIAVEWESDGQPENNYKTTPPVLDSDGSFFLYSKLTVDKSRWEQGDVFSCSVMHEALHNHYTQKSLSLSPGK
Sequence of Steap 1xCD3 TCE SEQ ID NO 373 + 374 + 375 (as listed by the source partner): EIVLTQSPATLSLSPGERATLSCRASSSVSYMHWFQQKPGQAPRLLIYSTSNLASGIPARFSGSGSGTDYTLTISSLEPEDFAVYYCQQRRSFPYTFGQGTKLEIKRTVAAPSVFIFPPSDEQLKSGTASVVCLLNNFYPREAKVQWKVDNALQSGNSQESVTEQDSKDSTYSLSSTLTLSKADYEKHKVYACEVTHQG
Protocol: as §1, §2

[8] = target: DLL3xCD3 TCE SEQ ID NO 104; assay: SPR assay of immobilized peptides binding with TCE; conditions: immobilized peptide, Kinetic 1:1 Binding
Sequence of DLL3xCD3 TCE SEQ ID NO 104 (as listed by the source): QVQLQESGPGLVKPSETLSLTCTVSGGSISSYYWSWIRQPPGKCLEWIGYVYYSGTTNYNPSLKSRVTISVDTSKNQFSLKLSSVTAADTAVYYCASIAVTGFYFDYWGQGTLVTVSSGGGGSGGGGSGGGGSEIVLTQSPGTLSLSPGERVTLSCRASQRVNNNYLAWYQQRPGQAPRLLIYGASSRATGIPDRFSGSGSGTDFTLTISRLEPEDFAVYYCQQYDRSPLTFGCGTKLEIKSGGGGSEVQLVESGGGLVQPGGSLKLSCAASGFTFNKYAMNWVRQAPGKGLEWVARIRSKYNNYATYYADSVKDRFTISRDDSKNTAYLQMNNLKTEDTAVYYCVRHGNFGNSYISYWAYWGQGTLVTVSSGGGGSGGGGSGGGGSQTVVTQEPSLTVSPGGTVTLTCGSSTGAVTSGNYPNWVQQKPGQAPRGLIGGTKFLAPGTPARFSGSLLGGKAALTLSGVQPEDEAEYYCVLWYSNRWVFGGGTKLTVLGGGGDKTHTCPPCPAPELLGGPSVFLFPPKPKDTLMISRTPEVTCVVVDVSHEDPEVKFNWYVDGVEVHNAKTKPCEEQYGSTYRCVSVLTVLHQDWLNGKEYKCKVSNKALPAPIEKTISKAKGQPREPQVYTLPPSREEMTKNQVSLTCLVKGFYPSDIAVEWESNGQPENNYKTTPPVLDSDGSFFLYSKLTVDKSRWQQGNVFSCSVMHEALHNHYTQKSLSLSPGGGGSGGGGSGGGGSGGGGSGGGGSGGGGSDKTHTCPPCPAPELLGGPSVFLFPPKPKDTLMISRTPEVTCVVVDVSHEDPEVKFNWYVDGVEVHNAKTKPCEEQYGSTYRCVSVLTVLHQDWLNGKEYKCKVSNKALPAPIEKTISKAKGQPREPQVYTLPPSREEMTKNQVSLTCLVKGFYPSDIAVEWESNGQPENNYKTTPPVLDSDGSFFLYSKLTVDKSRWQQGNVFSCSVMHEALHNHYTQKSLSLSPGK
Protocol: as §1, §2

FLT3xCD3 TCE = assay: SPR solution assay of competition binding with TCE
Protocol: (§3) SPR Solution Assay of Competition Binding with TCE
(§4) As it can be derived from table 6,
(§5) A high affinity SPR ‘capture’ surface was first constructed to facilitate the SPR analysis of pre-equilibrated peptide analyte+TCE solutions. Briefly, a Cytiva CM5 chip was functionalized with PDEA (2-(2-pyridinyldithio)ethaneamine) under standard EDC/NHS coupling conditions where the PDEA is dissolved to 20 mM 2-(2-pyridinyldithio)ethaneamine and 1 M NaCl in 0.1 M sodium acetate pH 4.3, 6 peptide including p[…] (ID 14974, SEQ ID NO 304) were tested:
(§6) Respective peptide was dissolved to between 50 and 100-ug/mL for injection over the activated CM5 surface in PBST, pH 6.5, and coupling times were optimized to yield the desired surface density (~300RU).
(§7) For the binding assessment, Individual binding isotherms were constructed by titrating the respective peptide of interest into a fixed concentration of TCE-containing solution in PBST. At least 4 hrs equilibration time were allotted (r.t.) prior to analysis by SPR. For the analysis, a calibration curve was first constructed of the TCE analyte being assessed. For analysis of the TCE+peptide mixtures, the samples were injected (10 uL/min) over the previously prepared capture surface for 90 seconds, where the SPR response (RU) was recorded at the end of the injection and referenced to the previously prepared standard curve to derive an estimate of the ‘free’ TCE concentration in the presence of peptide analyte. The ‘free’ TCE concentration measured was plotted as a function of log peptide concentration and fit using non-linear regression analysis to a 4 parameter logistic function to derive an IC50.

STEAP1xCD3 TCE = assay: SPR solution assay of competition binding with TCE
Protocol: as §3, §4, §5, §6, §7

CD20 TCE = CD20 TCE + CD3ε PepPOL, v2 PK/PD study 157130 (Example 10); format: in vivo, cynomolgus monkeys
Protocol: Example 10: Cynomolgus Study CD20 TCE (0.010 mg/kg)+CD3ε PepPOL, v2 (+25× (0.016 mg/kg), +250× (0.16 mg/kg) Co-Administration in Cynomolgus Monkeys
PK/PD study 157130 was an exploratory dose-ranging study conducted in cynomolgus monkeys aimed to establish activity of a ‘high affinity’ CD3ε PepPOL, v2 when co-administered with CD20 TCE. Primary study endpoints included: cytokine release, CD20+ B cell lysis, T cell activation, and clinical chemistry end points typically associated with CRS (e.g., CRP). CD20 TCE was dosed at 10 ug/kg alone, or in combination with CD3ε PepPOL, v2 at 0.016 mg/kg (25× molar excess CD3ε peptide), or 0.160 mg/kg (250× molar excess CD3ε peptide). A summary of the results is described below.
Serum cytokines MCP-1, IL-6, TNFα, IFNγ, and IL-2 were assessed by multiplex sandwich immunoassay at multiple time points from 0-168 hours post dose.

[9] = C57BL/6 mice, single dose, non-linear one-phase decay fitting
Text: Example 4: TCE Masking Molecule in PK Mouse Study
To further understand the in vivo behavior of the pyro-Glu containing dimeric p-[…]

Substance: (QDGNEEMGKGMEENGDQC)4 - PEG(20 kDa) (also: four copies conjugated to PEG 20 kDa)
- terminal elimination half-lives [1]: ~90 min
- PD effect with respect to CD19+ B cell depletion (muCD19 TCE): retained a greater degree of PD effect
- impact on cytokine reduction (muCD19 TCE): cytokine reduction can be seen
- terminal elimination half-life [2]: ~1.47 h
- koff [3]: 0.0047 s⁻¹

- fast component for the off-rate ([4]; bivalent analyte model): 0.236 s⁻¹
- fast component of the on-rate ([4]; bivalent analyte model): 1.29e+06 M⁻¹ s⁻¹
- Kd ([4]; immobilized peptide, SS Affinity model): 72.5 nM
- ka [5]: 3.81e+06 M⁻¹ s⁻¹
- kd [5]: 0.0624 s⁻¹
- Kd [6]: 7.3 nM
- ka [6]: 4.04e+06 M⁻¹ s⁻¹
- kd [6]: 0.0295 s⁻¹
- Kd [7]: 27.4 nM
- ka [7]: 3.04e+06 M⁻¹ s⁻¹
- kd [7]: 0.0834 s⁻¹
- Kd [8]: 20.5 nM
- ka [8]: 2.64e+06 M⁻¹ s⁻¹
- kd [8]: 0.0542 s⁻¹
- IC50 (FLT3xCD3 TCE; solution competition): 14.7 nM
- IC50 (STEAP1xCD3 TCE): 28.6 nM
Substance: pGlu-DGEEELKGC (N-terminal pyroglutamate; VARIANT 1 Pyroglutamic acid)

- ka [6]: 3.21e+06 M⁻¹ s⁻¹
- kd [6]: 0.0285 s⁻¹
- ka [7]: 2.09e+06 M⁻¹ s⁻¹
- kd [7]: 0.0734 s⁻¹
- ka [8]: 4.81e+06 M⁻¹ s⁻¹
- kd [8]: 0.0713 s⁻¹
- reduction in IC50 (FIG. 19) (FLT3xCD3 TCE; FLT3×CD3 TCE and STEAP1×CD3 TCE): negative example
Substance: pGlu-DGTEELKGC ([pGlu]DGTEELKGC)

Substance: (pE-DGNEEMGKGMEENGDQC)4-PEG(20 kDa) ([pGlu]DGNEEMGKGMEENGDQC; also: four copies attached to PEG(20 kDa), site not given here)
- IL-6 serum concentration (CD20 TCE; 0.010 mg/kg CD20 TCE + 0.016 mg/kg (25×)): moderate increase in IL-6 serum concentration for n=1 of 2 animals
- IL-6 stimulation (CD20 TCE; 0.010 mg/kg CD20 TCE + 0.16 mg/kg (250×)): No IL-6 stimulation was observed
- difference in CD20 TCE cytolytic activity vs CD20 TCE control group (CD20 TCE; 0.010 mg/kg CD20 TCE IV): No apparent difference
- circulating CD20+ B lymphocytes (CD20 TCE; 0.010 mg/kg CD20 TCE IV alone or in combination): complete elimination
- reduction in peak serum MCP-1 (CD20 TCE; 4 hr, 250× combo group, 0.010 mg/kg CD20 TCE IV): ~ 98%
- TNF-α and IFN-γ (CD20 TCE; CD20 TCE + 0.160 mg/kg, all time points, both animals): not detected above the assay LLOQ
- IL-2 response (CD20 TCE; any group): No detectable IL-2 response
- T cell activation, early (CD69+) and late (CD25+) markers by flow cytometry (CD20 TCE; co-administration with 0.010 mg/kg CD20 TCE, 20 day study): pronounced effect on T cell activation
- C-reactive protein (CRP) (CD20 TCE; combo groups relative to CD20 TCE monotherapy 0.010 mg/kg IV): dose-dependent decrease in CRP
- elimination half-lives [9]: ~102 min
- koff [3]: 0.00195 s⁻¹
